Experimental data: patent US7160729B2, “Method for detecting diseases that are associated with defects of cystic fibrosis transmembrane conductance regulator (CFTR) protein” (priority 2002, dated 2007)
Entries after “also recorded” stand apart in the source; their conditions may differ.

Experiments:
[1] = aqueous solution, room temperature; cited from earlier work
[2] = tested on: blood cells (reticulocytes and young erythrocytes); CFTR dependent ATP release; test: Hemolysis test of blood cells in 155 mM KCl medium with Gd3+ blockade of CFTR dependent volume regulation; type: cell-based, human
Text: A non-defective cell is able to control and regulate its cell volume by interlinking mechanisms during the influx and the efflux of ions and water under physiological conditions. In non-defective blood cells, after application of a 155 mm potassium chloride medium chloride flows into the cell, inter alia through the CFTR. In one embodiment, the invention is based on the idea to inhibit the regulatory volume decrease (RVD) by influencing—for example by blockade—the CFTR-dependent ATP-transporting channels expressed in the cytomembrane. […] This is especially the case with CF blood cells, which due to the CFTR defect have no influx of chloride ions and whose RVD is independent of CFTR. Therefore, no positive pressure can build up in the cell; the blood cells with defective ion channels, especially the blood cells of CF patients undergo no lysis.
In patients suffering from mucoviscidosis with a homozygous ΔF508 mutation, the CFTR is not in the cytomembrane. With heterozygous mutations and other mutations than ΔF508, small quantities of functional CFTR can be in the membrane that transport chloride and are involved in volume regulation. The quantity of the functional CFTR molecules in the cytomembrane is inversely proportional to the severity of the illness. […] The contribution of the CFTR dependent RVD to the entire RVD is proportional to the quantity of the functional CFTR molecules within the membrane. […] Because the quantity of the functional CFTR molecules in the cytomembrane is inversely proportional to the severity of the illness in mucoviscodosis patients, the degree of the hemolysis after blockade of the CFTR dependent RVD is a measurement for the severity of the illness.
In accordance with the invention, first blood cells are extracted from whole blood by centrifugation. […] This solution is incubated for 60 min under agitation at 37° C. and afterwards the released hemoglobin in the solution is determined. […] The hemolysis is determined by visual examination and is quantified by absorption measurement with a wave length of 546 nm. […]

[3] = tested on: blood cells; CFTR dependent ion channels (SDAC); test: Hemolysis test of blood cells in 155 mM KCl medium with sDIDS activation of CFTR dependent ion channels; type: cell-based, human
Text: This embodiment of the invention is based on the idea of evoking a lysis of the non-defective blood cells through activation of certain ion channels of the non-defective blood cells, where through anions flow into the non defective cell, for example: Iodide (I—), bromide (Br—), chloride (Cl—), fluoride (F—), gluconate (dextronic acid-anion), rhodanate (SCN—), and taurine. In defective blood cells these CFTR dependent ion channels don't exist or are not activatable. […] Then no positive pressure can build up in the cell; the blood cells with defective CFTR, especially the blood cells of CF Patients are not subject to lysis.
Since this CFTR dependent ion channel in non-defective blood cells allows the passage of anions such as for example: iodide, bromide, chloride, fluoride, gluconate and rhodanate as well as taurine, the differentiation between defective and non-defective blood cells can also take place in 155 mm solutions that contain iodide, bromide, fluoride, gluconate, rhodanate or taurine.
This embodiment is carried out analogously to the example mentioned above, only the blood cells are resuspended in a solution consisting of 155 mM KCl, 10 mM HEPES-Puffer (pH 7.4) and 100 μM sDIDS. This solution is incubated for 60 min under agitation at 37° C. and afterwards the released hemoglobin in the solution is determined.
Through the selected conditions of the preferred embodiment of the method according to the invention, chloride ions flow into non-defective blood cells via the anion channel activated by sDIDS into the blood cell. That leads to the accumulation of chloride ions in the blood cell and the water influx associated ion influx leads the good blood cell to burst. The hemolysis can be detected photometrically. This procedure may also be carried out with 10 mM HEPES-buffered solution (pH 7,4), that contains 155 mM iodide, bromide, fluoride, gluconate, or rhodanate as anions.

[4] = tested on: Calu-3 cells (human respiratory tract epithelium cell line); test: Patch-clamp, whole-cell configuration; type: cell-based; details: Calu-3, whole-cell, -90 to +10 mV
Description: During the experimental development of the test, it is shown that the observed reaction of the red blood cells can not be explained by the mechanisms known in the literature. The blood cell reactions are only explainable by the existence of a channel proteins, which is not yet known in literature.
In the whole-cell-configuration of the patch-clamp technology, the transmembrane current of a cell is measured with a pre-determined potential. The endocellular potential was maintained for 0.5 seconds in each case at values between −90 to +10 mV and increased in 10 mV intervals (8.d). The currents arising in a cell with this voltage range are presented in 8a–8c. In 8a, the base current of an untreated cell is shown (control). Through treatment with sDIDS, the conductivity of the cytomembrane of this cell increases together with the current (8b). After sDIDS was removed from the experiment (post control), the conductivity of the cytomembrane of this cell decreases, together with the current (8c). In 8e, the current is plotted against the applied potential, so that the slope of the curve is a measurement of the conductivity.

Compound: CC(=O)Nc1ccc(C=Cc2ccc(N=C=S)cc2S(=O)(=O)O)c(S(=O)(=O)O)c1 [SITS, 4-acetamido-4′-isothiocyanato-stilbene-2,2′-disulfonic acid]
- time of hydrolysis to 4-amino-4′-isothiocyanatostilbene-2,2′-disulfonic acid [1]: within a week

Compound: [Cl][Gd]([Cl])[Cl] [Gd^3+, gadolinium chloride]
- degree of hemolysis after Gd^3+ application ([2]; blood of 22 CF patients): only a slight increase
- degree of hemolysis after addition of Gd^3+ ([2]; blood of 87 healthy volunteers): unambiguous increase
- degree of hemolysis after addition of Gd^3+ ([2]; umbilical cord blood of 59 newborns): unambiguous increase

Compound: O=S(=O)([O-])c1cc(N=C=S)ccc1C=Cc1ccc(N=C=S)cc1S(=O)(=O)[O-].[Na+].[Na+] [DIDS, 4,4′-diisothiocyanato-stilbene-2,2′-disulfonic acid, sodium salt]
- time of hydrolysis to 4-amino-4′-isothiocyanatostilbene-2,2′-disulfonic acid [1]: within a week

Compound: Nc1ccc(CCc2ccc(N=C=S)cc2S(=O)(=O)O)c(S(=O)(=O)[O-])c1.[Na+] [4-amino-4′isothiocyanato-dihydrostilbene-2,2′-disulfonic acid, Na^+-salt]
- behaviour compared with sDIDS [3]: behaves like sDIDS

Compound: Nc1ccc(C=Cc2ccc(N=C=S)cc2S(=O)(=O)O)c(S(=O)(=O)O)c1 [sDIDS, 4-amino-4′-isothiocyanato-stilbene-2,2′-disulfonic acid]
- activation of anion conductivity (iodide, bromide, chloride, fluoride, gluconate, rhodanate, taurine) ([3]; blood cells of CF patients): no conductivity
- degree of hemolysis after sDIDS application ([3]; blood of 48 CF patients): only a slight increase
- degree of hemolysis after addition of sDIDS ([3]; blood of 148 healthy volunteers): unambiguous increase
- degree of hemolysis after addition of sDIDS ([3]; umbilical cord blood of 82 newborns): unambiguous increase
- conductivity of the cytomembrane / current after removal (post control) [4]: decreases
- conductivity of the cytomembrane / current during treatment [4]: reversible activatibility of a conductivity; also recorded: increases
